In PubChem BioAssay AID180 (DTP/NCI, 2004):
Several values for one entry are separate records, joined by “and”; a condition that tells them apart may be missing. Equal values may be shown once.

Test system: BDF1 mice, Adenocarcinoma 755 s.c., tumor weight T/C
Test: NCI In Vivo Anticancer Drug Screen. Data for tumor model Adenocarcinoma 755 (subcutaneous) in B6D2F1 (BDF1) mice
Details: endpoint: mean tumor weight, higher = larger tumour
Outline: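 In vivo antitumor screen on a transplantable tumor line. Result equals the measure in compound-treated animals divided by the same measure in vehicle controls.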

[1] = dose: 12.5 mg/kg/injection, schedule: Q01DX011 (ip), vehicle: carboxymethylcellulose (CMC)
[2] = dose: 25.0 mg/kg/injection, schedule: Q01DX011 (ip), vehicle: carboxymethylcellulose (CMC)

S=c1nc[nH]c2nc[nH]c12
T/C (dose: 0.01 mg/kg/injection, schedule: Q01DX011 (ip), vehicle: carboxymethylcellulose (CMC)): 161 % of control | T/C (dose: 0.4 mg/kg/injection, schedule: Q01DX011 (ip), vehicle: carboxymethylcellulose (CMC)): 110 % of control | T/C (dose: 0.5 mg/kg/injection, schedule: Q01DX011 (ip), vehicle: saline): 13 % of control | T/C (dose: 0.69 mg/kg/injection, schedule: Q01DX011 (ip), vehicle: carboxymethylcellulose (CMC)): 9 % of control | T/C (dose: 0.75 mg/kg/injection, schedule: Q01DX011 (ip), vehicle: carboxymethylcellulose (CMC)): 4 % of control | T/C (dose: 0.87 mg/kg/injection, schedule: Q01DX011 (ip), vehicle: saline): 21 % of control | T/C (dose: 0.9 mg/kg/injection, schedule: Q01DX011 (ip), vehicle: carboxymethylcellulose (CMC)): 31 % of control | T/C (dose: 1.0 mg/kg/injection, schedule: Q01DX007 (ip), vehicle: carboxymethylcellulose (CMC)): 23 % of control | T/C (dose: 1.0 mg/kg/injection, schedule: Q01DX011 (ip), vehicle: saline): 2 % of control and 16 % of control and 27 % of control | T/C (dose: 1.07 mg/kg/injection, schedule: Q01DX011 (ip), vehicle: carboxymethylcellulose (CMC)): 32 % of control | T/C (dose: 1.25 mg/kg/injection, schedule: Q01DX011 (ip), vehicle: carboxymethylcellulose (CMC)): 3 % of control and 11 % of control | T/C (dose: 1.38 mg/kg/injection, schedule: Q01DX011 (ip), vehicle: carboxymethylcellulose (CMC)): 4 % of control | T/C (dose: 1.5 mg/kg/injection, schedule: Q01DX011 (ip), vehicle: alkali diluted with saline): 8 % of control | T/C (dose: 1.5 mg/kg/injection, schedule: Q01DX011 (ip), vehicle: saline): 3 % of control and 7 % of control | T/C (dose: 1.75 mg/kg/injection, schedule: Q01DX011 (ip), vehicle: saline): 13 % of control | T/C (dose: 1.75 mg/kg/injection, schedule: Q01DX011 (oral), vehicle: saline): 22 % of control | T/C (dose: 1.8 mg/kg/injection, schedule: Q01DX011 (ip), vehicle: carboxymethylcellulose (CMC)): 4 % of control and 15 % of control | T/C (dose: 2.0 mg/kg/injection, schedule: Q01DX007 (ip), vehicle: carboxymethylcellulose (CMC)): 2 % of control and 9 % of control | T/C (dose: 2.0 mg/kg/injection, schedule: Q01DX011 (ip), vehicle: alkali diluted with saline): 2 % of control | T/C (dose: 2.14 mg/kg/injection, schedule: Q01DX011 (ip), vehicle: carboxymethylcellulose (CMC)): 9 % of control | T/C (dose: 2.5 mg/kg/injection, schedule: Q01DX011 (oral), vehicle: alkali diluted with saline): 4 % of control | T/C (dose: 2.67 mg/kg/injection, schedule: Q01DX011 (ip), vehicle: carboxymethylcellulose (CMC)): 20 % of control | T/C (dose: 2.75 mg/kg/injection, schedule: Q01DX011 (ip), vehicle: carboxymethylcellulose (CMC)): 3 % of control | T/C (dose: 3.0 mg/kg/injection, schedule: Q01DX011 (ip), vehicle: carboxymethylcellulose (CMC)): 1 % of control and 2 % of control and 6 % of control | T/C (dose: 3.0 mg/kg/injection, schedule: Q01DX011 (ip), vehicle: saline): 1 % of control | T/C (dose: 3.5 mg/kg/injection, schedule: Q01DX011 (ip), vehicle: saline): 4 % of control | T/C (dose: 3.5 mg/kg/injection, schedule: Q01DX011 (oral), vehicle: saline): 8 % of control | T/C (dose: 4.0 mg/kg/injection, schedule: Q01DX011 (ip), vehicle: carboxymethylcellulose (CMC)): 7 % of control | T/C (dose: 4.0 mg/kg/injection, schedule: Q01DX011 (ip), vehicle: saline): 5 % of control | T/C (dose: 4.28 mg/kg/injection, schedule: Q01DX011 (ip), vehicle: carboxymethylcellulose (CMC)): 4 % of control and 9 % of control | T/C (dose: 5.0 mg/kg/injection, schedule: Q01DX007 (ip), vehicle: carboxymethylcellulose (CMC)): 8 % of control | T/C (dose: 5.0 mg/kg/injection, schedule: Q01DX011 (ip), vehicle: alkali diluted with saline): 4 % of control | T/C (dose: 5.35 mg/kg/injection, schedule: Q01DX011 (ip), vehicle: carboxymethylcellulose (CMC)): 7 % of control and 17 % of control | T/C (dose: 5.5 mg/kg/injection, schedule: Q01DX011 (ip), vehicle: carboxymethylcellulose (CMC)): 4 % of control and 6 % of control | T/C (dose: 6.0 mg/kg/injection, schedule: Q01DX011 (ip), vehicle: alkali diluted with saline): 4 % of control | T/C (dose: 6.0 mg/kg/injection, schedule: Q01DX011 (ip), vehicle: saline): 1 % of control and 5 % of control | T/C (dose: 7.0 mg/kg/injection, schedule: Q01DX011 (oral), vehicle: saline): 10 % of control | T/C (dose: 7.13 mg/kg/injection, schedule: Q01DX011 (ip), vehicle: carboxymethylcellulose (CMC)): 8 % of control | T/C (dose: 10.0 mg/kg/injection, schedule: Q01DX011 (ip), vehicle: alkali diluted with saline): 1 % of control and 9 % of control | T/C (dose: 10.0 mg/kg/injection, schedule: Q01DX011 (oral), vehicle: alkali diluted with saline): 1 % of control | T/C (dose: 10.7 mg/kg/injection, schedule: Q01DX011 (ip), vehicle: carboxymethylcellulose (CMC)): 7 % of control and 8 % of control | T/C (dose: 11.0 mg/kg/injection, schedule: Q01DX011 (ip), vehicle: carboxymethylcellulose (CMC)): 4 % of control | T/C [1]: 1 % of control | T/C (dose: 15.0 mg/kg/injection, schedule: Q01DX011 (ip), vehicle: carboxymethylcellulose (CMC)): 4 % of control | T/C (dose: 15.0 mg/kg/injection, schedule: Q01DX011 (ip), vehicle: saline): 1 % of control and 4 % of control | T/C (dose: 20.0 mg/kg/injection, schedule: Q01DX011 (ip), vehicle: alkali diluted with saline): 1 % of control and 4 % of control | T/C (dose: 21.4 mg/kg/injection, schedule: Q01DX011 (ip), vehicle: carboxymethylcellulose (CMC)): 6 % of control | T/C (dose: 22.0 mg/kg/injection, schedule: Q01DX011 (ip), vehicle: carboxymethylcellulose (CMC)): 3 % of control | T/C (dose: 25.0 mg/kg/injection, schedule: Q01DX011 (ip), vehicle: alkali diluted with saline): 2 % of control and 11 % of control | T/C [2]: 4 % of control | T/C (dose: 25.0 mg/kg/injection, schedule: Q01DX011 (ip), vehicle: saline): 3 % of control | T/C (dose: 30.0 mg/kg/injection, schedule: Q01DX011 (ip), vehicle: carboxymethylcellulose (CMC)): 4 % of control and 6 % of control | T/C (dose: 35.0 mg/kg/injection, schedule: Q01DX011 (ip), vehicle: carboxymethylcellulose (CMC)): 5 % of control | T/C (dose: 40.0 mg/kg/injection, schedule: Q01DX011 (ip), vehicle: alkali diluted with saline): 2 % of control | T/C (dose: 40.0 mg/kg/injection, schedule: Q01DX011 (ip), vehicle: carboxymethylcellulose (CMC)): 5 % of control | T/C (dose: 44.0 mg/kg/injection, schedule: Q01DX007 (ip), vehicle: carboxymethylcellulose (CMC)): 3 % of control | T/C (dose: 44.0 mg/kg/injection, schedule: Q01DX011 (ip), vehicle: alkali diluted with saline): 2 % of control | T/C (dose: 44.0 mg/kg/injection, schedule: Q01DX011 (ip), vehicle: carboxymethylcellulose (CMC)): 3 % of control and 5 % of control | T/C (dose: 50.0 mg/kg/injection, schedule: Q01DX011 (ip), vehicle: alkali diluted with saline): 4 % of control | T/C (dose: 60.0 mg/kg/injection, schedule: Q01DX011 (ip), vehicle: carboxymethylcellulose (CMC)): 4 % of control | T/C (dose: 62.0 mg/kg/injection, schedule: Q01DX011 (ip), vehicle: saline): 2 % of control | T/C (dose: 65.0 mg/kg/injection, schedule: Q01DX011 (ip), vehicle: alkali diluted with saline): 1 % of control | T/C (dose: 80.0 mg/kg/injection, schedule: Q01DX011 (ip), vehicle: alkali diluted with saline): 2 % of control and 4 % of control | T/C (dose: 100.0 mg/kg/injection, schedule: Q01DX011 (ip), vehicle: alkali diluted with saline): 1 % of control | T/C (dose: 100.0 mg/kg/injection, schedule: Q01DX011 (ip), vehicle: saline): 1 % of control | T/C (dose: 320.0 mg/kg/injection, schedule: Q01DX001 (ip), vehicle: alkali diluted with saline): 5 % of control | T/C (dose: 320.0 mg/kg/injection, schedule: Q01DX001 (oral), vehicle: alkali diluted with saline): 19 % of control | T/C (dose: 320.0 mg/kg/injection, schedule: Q07DX002 (ip), vehicle: alkali diluted with saline): 4 % of control | T/C (dose: 480.0 mg/kg/injection, schedule: Q01DX001 (oral), vehicle: alkali diluted with saline): 22 % of control | T/C (dose: 480.0 mg/kg/injection, schedule: Q03DX004 (oral), vehicle: alkali diluted with saline): 1 % of control | T/C (dose: 480.0 mg/kg/injection, schedule: Q07DX002 (oral), vehicle: alkali diluted with saline): 2 % of control | T/C (dose: 640.0 mg/kg/injection, schedule: Q01DX001 (oral), vehicle: alkali diluted with saline): 10 % of control | T/C (dose: 640.0 mg/kg/injection, schedule: Q07DX002 (oral), vehicle: alkali diluted with saline): 2 % of control | T/C (dose: 125.0 micrograms/kg/injection, schedule: Q01DX011 (ip), vehicle: saline): 11 % of control | T/C (dose: 250.0 micrograms/kg/injection, schedule: Q01DX011 (ip), vehicle: saline): 20 % of control | T/C (dose: 500.0 micrograms/kg/injection, schedule: Q01DX011 (ip), vehicle: saline): 9 % of control | T/C (dose: 1000.0 micrograms/kg/injection, schedule: Q01DX011 (ip), vehicle: saline): 3 % of control

Cn1c(N)nc2c(ncn2C2OC(CO)C(O)C2O)c1=O (stereo not drawn)
T/C (dose: 30.0 mg/kg/injection, schedule: Q01DX011 (ip), vehicle: saline): 101 % of control | T/C (dose: 60.0 mg/kg/injection, schedule: Q01DX011 (ip), vehicle: saline): 94 % of control | T/C (dose: 120.0 mg/kg/injection, schedule: Q01DX011 (ip), vehicle: saline): 116 % of control

C=CC(=O)NCNC(=O)CCBr
T/C [1]: 62 % of control | T/C [2]: 34 % of control | T/C (dose: 50.0 mg/kg/injection, schedule: Q01DX011 (ip), vehicle: carboxymethylcellulose (CMC)): 1 % of control
